Laboratory results as given in patent publication US7192931B2, “Treatment of demyelinating diseases” (Neuren Pharmaceuticals Ltd., priority 2000, dated 2007).

Experiments:
Format in all cases: in vivo, mouse
GluR2 = GluR2 subunit expression in spinal cord; conditions: spinal cord of EAE mice, immunohistochemistry and Western blot
Protocol: PBS-perfused spinal cords were homogenized in lysis buffer (50 mM Tris pH 7.4, 100 μM EDTA, 0.25 M sucrose, 1% sodium dodecyl sulfate [SDS], 1% Nonidet P-40 [NP40], 1 μg/mL leupeptin, 1 μg/mL pepstatin A, and 100 μM phenylmethylsulfonylfluoride) at 4° C. using a motor-driven homogenizer (Virtus, Gardiner, N.Y.). […] The membranes were washed thrice with TBS-T and incubated with horseradish peroxidase-conjugated anti-mouse IgG (Sigma) diluted 1:5000 in TBS-T. Immunoreactivity was detected by Enhanced Chemiluminescence (Amersham International plc. England) and autoradiography.

oligodendrocytes = experiment: Oligodendrocyte loss by CNPase immunostaining of dorsal columns; conditions: 31 for rat IgG and 26 for PBS treated control mice
Source text: (§1) Frozen sections from lumbar spinal cord (10 μm) were acetone-fixed and immunostained for oligodendrocyte content with an antibody against CNPase (Sigma; diluted 1:100); for axonal damage with an antibody against non-phosphorylated neurofilament-H (SM 1-32; Stemberger Monoclonals Incorporated, Lutherville, Md., USA; diluted 1:1000), and for GluR2 and NR1 content using mouse mAbs obtained from Zymed Laboratories Inc., Carlton, San Francisco, Calif. Antibody staining was visualized with an avidin:biotinylated enzyme complex (Vector Laboratories, Burlingame, Calif., USA). Sections were viewed under a light microscope, and cells stained with the anti-CNPase and SM 1-32 antibodies were counted.
To evaluate the effects of the different treatment regimes on the loss of oligodendrocytes, a key cellular target in demyelinating diseases of the CNS, oligodendrocytes were enumerated by immunohistochemical staining of spinal cord sections and the number of oligodendrocytes within the dorsal columns of […] transverse sections were counted (FIG. 5B), and reductions in oligodendrocyte numbers were calculated and expressed as % loss of oligodendrocytes per dorsal section (FIG. 5C). […]

[1] = system: apoptotic cells in spinal cord of EAE mice; experiment: In situ detection of apoptotic cells in the CNS by TUNEL assay; conditions: spinal cord sections, compared to mice mock treated with PBS or rat IgG
Protocol: Cells undergoing apoptosis were identified using the in situ TUNEL assay. Five-μm thick serial sections of brain and spinal cord were prepared to detect apoptosis by TUNEL (i.e., terminal deoxynucleotidyl transferase-mediated deoxyuridine triphosphate-digoxigenin nick end labeling) staining using the In Situ Apoptosis Detection Kit from Boehringer Mannheim (Germany). Briefly, frozen sections were fixed in 4% paraformaldehyde, permeabilized in 0.1% Triton X-100, incubated with 20 μL TUNEL reagent for 60 minutes at 37° C., and then examined by fluorescence microscopy. Adjacent sections were counterstained with hematoxylin and mounted onto poly-L-lysine coated slides to allow the total number of nucleated cells to be counted. The percentage of apoptotic cells was assessed in ten randomly selected fields viewed at 40× magnification. The apoptotic index (AI) was calculated as follows: AI=number of apoptotic (TUNEL-positive) cells×100/total number of nucleated cells.

[2] = system: NMDA receptor subunit NR1; experiment: NMDA receptor subunit NR1 expression in spinal cord; conditions: spinal cord of EAE mice, immunohistochemistry and Western blot
Source text: as §1
PBS-perfused spinal cords were homogenized in lysis buffer (50 mM Tris pH 7.4, 100 μM EDTA, 0.25 M sucrose, 1% sodium dodecyl sulfate [SDS], 1% Nonidet P-40 [NP40], 1 μg/mL leupeptin, 1 μg/mL pepstatin A, and 100 μM phenylmethylsulfonylfluoride) at 4° C. using a motor-driven homogenizer (Virtus, Gardiner, N.Y.). […] Protein concentrations of the supernatants were determined as described (Peterson, 1983), and 100 μg of protein resolved on 10% polyacrylamide SDS-gels under reducing conditions and then electrophoretically transferred to Hybond C Extra nitrocellulose membranes (Amersham Life Science, England). […]

[3] = system: dephosphorylated neurofilament-H; experiment: Axonal damage: dephosphorylated neurofilament-H in spinal cord (Western blot, immunohistochemistry); conditions: for average relative densities of neurofilament-H: spinal cord homogenates, Western blot, 6.1 for rat IgG or PBS treated control mice; for effect on amount of axonal damage: spinal cord, dephosphorylated neurofilament-H
Source text: as §1
PBS-perfused spinal cords were homogenized in lysis buffer (50 mM Tris pH 7.4, 100 μM EDTA, 0.25 M sucrose, 1% sodium dodecyl sulfate [SDS], 1% Nonidet P-40 [NP40], 1 μg/mL leupeptin, 1 μg/mL pepstatin A, and 100 μM phenylmethylsulfonylfluoride) at 4° C. using a motor-driven homogenizer (Virtus, Gardiner, N.Y.). Spinal cord lysates from each group of mice were pooled and centrifuged at 10000 g for 10 minutes at 4° C. to remove tissue debris. Protein concentrations of the supernatants were determined as described (Peterson, 1983), and 100 μg of protein resolved on 10% polyacrylamide SDS-gels under reducing conditions and then electrophoretically transferred to Hybond C Extra nitrocellulose membranes (Amersham Life Science, England). The membranes were blocked with 3% bovine serum albumin in TBS-T (20 mM Tris, 137 mM NaCl, pH 7.6 containing 0.1% Tween-20) for 2 hours at room temperature. Immunodetection was accomplished by incubation overnight at 4° C. with SM1-32 (1:500 dilution), anti-CNPase (1:100 dilution) antibody, or anti-GluR2 and NR1 mAbs (1:200 dilution). The membranes were washed thrice with TBS-T and incubated with horseradish peroxidase-conjugated anti-mouse IgG (Sigma) diluted 1:5000 in TBS-T. Immunoreactivity was detected by Enhanced Chemiluminescence (Amersham International plc. England) and autoradiography.

Molecule	GluR2 expression (GluR2)	% loss of oligodendrocytes per dorsal section (oligodendrocytes)	reductions in the numbers of apoptotic cells [1]	NMDA receptor (NR1 subunit) expression [2]	average relative densities of neurofilament-H [3]	effect on amount of axonal damage [3]
NS(=O)(=O)c1cccc2c1c([N+](=O)[O-])cc1nc(O)c(O)nc12 [NBQX, 2,3-dihydroxy-6-nitro-7-sulfamoylbenzo(f)quinoxaline]	downregulates the AMPA receptor	13%	~30%	caused down-regulation of the NMDA receptor	3.5	almost halved the amount of axonal damage
Gly-Pro-Glu [GPE]	negligible effect	14%	~30%	not effective	3.2	almost halved the amount of axonal damage
